{
  "source": "patent US12180215B2",
  "about": "“Substituted pyrrolo[3,4-d]imidazoles as JAK inhibitors” (HENAN MEDINNO PHARMACEUTICAL TECHNOLOGY CO., LTD., priority 2019, dated 2024)",
  "key": {"[1]": {"tested_on": "itching caused by allergic dermatitis", "settings": "cited from earlier work"}, "[2]": {"settings": "in vivo; cited from earlier work"}, "[3]": {"molecular_target": "T1, TYK2 (Homo sapiens, UniProt P29597)", "T1 construct": "purchased Invitrogen PV4790", "T1 sequence (P29597 833-1187 limits assumed)": "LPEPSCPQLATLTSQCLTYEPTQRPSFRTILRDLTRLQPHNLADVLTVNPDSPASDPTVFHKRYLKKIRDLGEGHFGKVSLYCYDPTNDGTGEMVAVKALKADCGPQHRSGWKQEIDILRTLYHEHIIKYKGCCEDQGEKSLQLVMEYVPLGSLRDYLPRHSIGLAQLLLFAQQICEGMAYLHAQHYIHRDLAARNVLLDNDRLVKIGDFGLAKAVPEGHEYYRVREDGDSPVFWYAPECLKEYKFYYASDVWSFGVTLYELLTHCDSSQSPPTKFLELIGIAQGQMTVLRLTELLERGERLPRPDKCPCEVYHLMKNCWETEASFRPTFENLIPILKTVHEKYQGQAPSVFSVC", "assay": "TYK2 kinase ADP-Glo assay (Example 59)", "type": "biochemical", "settings": "for IC50: TYK2 (Invitrogen) 4 nM, ATP 10 μM, IRS1 0.03 mg/mL, 25° C. 60 min, read-out: IC50 (nM), TYK2 Experiment"}, "[4]": {"molecular_target": "JAK1 (Homo sapiens, UniProt P23458)", "sequence (P23458 866-1154 limits assumed)": "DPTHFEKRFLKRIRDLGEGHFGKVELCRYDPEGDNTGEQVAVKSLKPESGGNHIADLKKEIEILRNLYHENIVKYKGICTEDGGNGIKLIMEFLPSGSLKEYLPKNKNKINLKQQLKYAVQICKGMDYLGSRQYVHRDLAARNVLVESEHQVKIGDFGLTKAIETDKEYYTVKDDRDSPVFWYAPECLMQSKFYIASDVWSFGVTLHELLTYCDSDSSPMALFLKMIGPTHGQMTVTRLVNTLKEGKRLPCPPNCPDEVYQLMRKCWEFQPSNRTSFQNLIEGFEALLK", "assay": "JAK1 kinase ADP-Glo assay (Example 59)", "type": "biochemical", "parameters": "purchased Invitrogen PV4774", "settings": "for IC50: JAK1 (Invitrogen) 4 nM, ATP 20 μM, IRS1 0.05 mg/mL, 25° C. 60 min, read-out: IC50 (nM), JAK1 Experiment"}, "[5]": {"molecular_target": "JAK3 (Homo sapiens, UniProt P52333)", "sequence (P52333 781-1124 limits assumed)": "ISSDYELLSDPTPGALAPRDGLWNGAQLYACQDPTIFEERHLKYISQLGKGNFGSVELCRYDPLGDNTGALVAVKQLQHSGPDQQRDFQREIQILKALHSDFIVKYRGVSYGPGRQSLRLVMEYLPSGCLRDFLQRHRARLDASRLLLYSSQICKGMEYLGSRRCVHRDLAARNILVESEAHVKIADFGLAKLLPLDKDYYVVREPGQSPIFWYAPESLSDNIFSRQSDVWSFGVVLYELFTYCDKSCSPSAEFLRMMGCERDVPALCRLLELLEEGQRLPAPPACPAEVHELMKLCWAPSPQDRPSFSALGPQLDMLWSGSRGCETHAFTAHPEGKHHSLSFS", "assay": "JAK3 kinase ADP-Glo assay (Example 59)", "type": "biochemical", "parameters": "purchased Invitrogen PV3855", "settings": "for IC50: JAK3 (Invitrogen) 0.5 nM, ATP 10 μM, Poly (4:1 Glu, Tyr) 0.03 mg/mL, 25° C. 60 min, read-out: IC50 (nM), JAK3 Experiment"}, "[6]": {"molecular_target": "JAK2 (Homo sapiens, UniProt O60674)", "sequence (O60674 808-1132 limits assumed)": "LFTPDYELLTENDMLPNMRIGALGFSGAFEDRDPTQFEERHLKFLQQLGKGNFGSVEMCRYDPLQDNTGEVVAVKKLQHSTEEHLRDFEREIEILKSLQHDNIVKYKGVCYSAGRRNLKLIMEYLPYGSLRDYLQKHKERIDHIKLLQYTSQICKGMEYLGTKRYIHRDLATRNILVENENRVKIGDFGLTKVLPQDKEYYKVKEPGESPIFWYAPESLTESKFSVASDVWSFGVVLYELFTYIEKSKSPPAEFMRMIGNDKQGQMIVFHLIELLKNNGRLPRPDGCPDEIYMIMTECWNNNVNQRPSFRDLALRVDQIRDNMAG", "assay": "JAK2 kinase ADP-Glo assay (Example 59)"}, "[7]": {"settings": "slope of the nonlinear IC50 fit"}},
  "data": [
    {"smiles": "CNS(=O)(=O)C[C@H]1CC[C@H](N(C)c2ncnc3[nH]ccc23)CC1", "note": "[Olatinib]", "values": [
      {"measurement": "experimental animals (dogs) that alleviated the itching response by more than 50%", "setting": "[1]; on the 7th day", "result": "more than 70%"},
      {"measurement": "time to relieve itching during the treatment", "setting": "[1]; oral administration of 0.4-0.6 mg/kg twice a day", "result": "≤ 24", "unit": "h"}
    ]},
    {"smiles": "N#CC[C@H](C1CCCC1)n1cc(-c2ncnc3[nH]ccc23)cn1", "note": "[Ruxolitinib]", "values": [
      {"measurement": "incidence of the most common hematological adverse effects (low platelet counts and anemia)", "setting": "[2]", "result": "> 20", "unit": "%"},
      {"measurement": "incidence of the most common non-hematological adverse effects (ecchymosis, dizziness and headache)", "setting": "[2]", "result": "> 10", "unit": "%"}
    ]},
    {"smiles": "CCc1cc(O)c(F)cc1-c1ccc2c(-c3nc4c([nH]3)CN(C(=O)c3cnc(N5CCN(C)CC5)cn3)C4)n[nH]c2c1", "note": "[MDI-204, (2-(6-(2-ethyl-5-fluoro-4-hydroxyphenyl)-1H-indazol-3-yl)pyrrolo[3,4-d]imidazol-5(1H,4H,6H)-yl)(5-(4-methylpiperazin-1-yl)pyrazin-2-yl)ketone]", "values": [
      {"measurement": "IC50", "setting": "[3]", "result": 0.2, "unit": "nM"},
      {"measurement": "IC50", "setting": "[4]", "result": 0.152, "unit": "nM"},
      {"measurement": "IC50", "setting": "[5]", "result": 0.238, "unit": "nM"},
      {"measurement": "IC50", "setting": "[6]", "result": 0.176, "unit": "nM"}
    ]},
    {"smiles": "CCc1cc(O)c(F)cc1-c1ccc2c(-c3nc4c([nH]3)CN(C(=O)c3cnc(N5CCOCC5)cn3)C4)n[nH]c2c1", "note": "[MDI-201, (2-(6-(2-ethyl-5-fluoro-4-hydroxyphenyl)-1H-indazol-3-yl)-4,6-dihydropyrrolo[3,4-d]imidazol-5(1H)-yl)(5-morpholinepyrazin-2-yl)ketone]", "values": [
      {"measurement": "IC50", "setting": "[3]", "result": 0.281, "unit": "nM"},
      {"measurement": "Hillslope, TYK2 Experiment", "setting": "[3]; [7]", "result": 1.411},
      {"measurement": "IC50", "setting": "[4]", "result": 0.138, "unit": "nM"},
      {"measurement": "Hillslope, JAK1 Experiment", "setting": "[4]; [7]", "result": 3.487},
      {"measurement": "IC50", "setting": "[5]", "result": 0.187, "unit": "nM"},
      {"measurement": "Hillslope, JAK3 Experiment", "setting": "[5]; [7]", "result": 1.989},
      {"measurement": "IC50", "setting": "[6]", "result": 0.217, "unit": "nM"},
      {"measurement": "Hillslope, JAK2 Experiment", "setting": "[6]; Example 59, slope of the nonlinear IC50 fit", "result": 1.633}
    ]},
    {"smiles": "CCc1cc(O)ccc1-c1ccc2c(-c3nc4c([nH]3)CN(C(=O)c3cnc(N5CCN(C)CC5)cn3)C4)n[nH]c2c1", "note": "[MDI-205, (2-(6-(2-ethyl-4-hydroxyphenyl)-1H-indazol-3-yl)pyrrolo[3,4-d]imidazol-5(1H,4H,6H)-yl)(5-(4-methylpiperazin-1-yl)pyrazin-2-yl)ketone]", "values": [
      {"measurement": "IC50", "setting": "[3]", "result": 0.194, "unit": "nM"},
      {"measurement": "IC50", "setting": "[4]", "result": 0.121, "unit": "nM"},
      {"measurement": "IC50", "setting": "[5]", "result": 0.178, "unit": "nM"},
      {"measurement": "IC50", "setting": "[6]", "result": 0.158, "unit": "nM"}
    ]}
  ]
}
